Several values for one entry are separate records, joined by “and”; a condition that tells them apart may be missing. Equal values may be shown once.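 How tested: cells in 96-well plates exposed to compound for 48 hours at five concentrations. At the GI50, growth is halved. TGI is the concentration that stops growth completely.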
Legend:
Assay in all cases: DTP human tumour cell line panel, 48 h
SN12C renal = tested on: SN12C renal
OVCAR-8 ovarian = tested on: OVCAR-8 ovarian
NCI/ADR-RES ovarian = tested on: NCI/ADR-RES ovarian
MOLT-4 leukemia = tested on: MOLT-4 leukemia
NCI-H460 lung = tested on: NCI-H460 lung
OVCAR-4 ovarian = tested on: OVCAR-4 ovarian
RPMI-8226 leukemia = tested on: RPMI-8226 leukemia
COLO 205 colon = tested on: COLO 205 colon
A549 NSCLC = tested on: A549 NSCLC
HL-60(TB) leukemia = tested on: HL-60(TB) leukemia

| SMILES | TGI (SN12C renal) | TGI (OVCAR-8 ovarian) | TGI (NCI/ADR-RES ovarian) [µM] | TGI (MOLT-4 leukemia) [µM] | TGI (NCI-H460 lung) [µM] | TGI (OVCAR-4 ovarian) [µM] | TGI (RPMI-8226 leukemia) | TGI (COLO 205 colon) [µM] | TGI (A549 NSCLC) | TGI (HL-60(TB) leukemia) [µM] | GI50 (SN12C renal) [nM] | GI50 (MOLT-4 leukemia) [nM] | GI50 (HL-60(TB) leukemia) [nM] | GI50 (NCI-H460 lung) [nM] | GI50 (RPMI-8226 leukemia) [nM] | GI50 (COLO 205 colon) [nM] | GI50 (A549 NSCLC) [nM] |
| --- | --- | --- | --- | --- | --- | --- | --- | --- | --- | --- | --- | --- | --- | --- | --- | --- | --- |
| CCOc1ccc2c(c1)c(=O)c1c(NCCN(CC)CC)ccc3nnn2c31 | > 100 µM | 65.8 µM | > 54.2 | > 59.9 | > 57.8 | 26.3 | > 65.1 µM | > 54 | > 55.5 µM | – | – | – | – | – | – | – | – |
| O=[N+]([O-])c1cccc2nccc(NCCCO)c12 | 28 µM | 37.3 µM | – | 45.1 | 24.4 | 23.8 | 46.6 µM | 15.8 | 49 µM | 36.8 | – | – | – | – | – | – | – |
| COc1ccc(N2C(=O)C3c4[nH]c5ccccc5c4C4CCCCC4C3C2=O)cc1 (configuration not stated) | > 100 µM | 28.6 µM | – | 36.9 | > 100 | 23.6 | > 100 µM | > 100 | 51.9 µM | 55.1 | – | – | – | – | – | – | – |
| Cc1ccc(-n2cc([Si](C)(C)C)nn2)s1 | > 100 µM | > 100 µM | > 100 | – | > 100 | > 100 | > 100 µM | > 100 | > 100 µM | – | – | – | – | – | – | – | – |
| O=C1NCCS(=O)(=O)N2CCC[C@@H]12 | > 100 µM | > 100 µM | – | > 100 | > 100 | > 100 | > 100 µM | > 100 | > 100 µM | > 100 | – | – | – | – | – | – | – |
| O=C1c2ccccc2C(=O)c2[nH]c(Cc3ccc(F)cc3)nc21 | 51.3 µM | 35.3 µM | – | 71.2 | 31.1 | 34.9 | 95.8 µM | 41 | 38.1 µM | 55.2 | – | – | – | – | – | – | – |
| CCCC(=O)[O-].N.N.N.N.N.[Co+3].[O-][Cl+3]([O-])([O-])[O-] | > 100 µM | > 100 µM | – | > 100 | > 100 | > 100 | > 100 µM | > 100 | > 100 µM | – | – | – | – | – | – | – | – |
| CC1(C)N=C(c2ccccn2)C(c2ccccn2)=NC1(C)C | > 100 µM | > 100 µM | – | > 100 | > 100 | > 100 | > 100 µM | > 100 | > 100 µM | > 100 | – | – | – | – | – | – | – |
| COc1ccc(Sc2ccccc2N)cc1 | > 100 µM | > 100 µM | – | > 100 | > 100 | > 100 | > 100 µM | 32.8 | > 100 µM | 60.9 | – | – | – | – | – | – | – |
| Cc1ccc(N=C2C(=Nc3ccc(C)cc3)N(c3ccc(C)cc3)C(=S)N2C(=O)c2ccccc2)cc1 | > 100 µM | – | > 100 | > 100 | > 100 | – | > 100 µM | > 100 | > 100 µM | – | – | – | – | – | – | – | – |
| CN1C/C(=C\C=C\c2ccccc2)C(=O)/C(=C/C=C/c2ccccc2)C1 | > 100 µM | > 100 µM | – | > 100 | > 100 | > 100 | > 100 µM | > 100 | > 100 µM | – | – | – | – | – | – | – | – |
| CC(=O)Nc1ccccc1NC1CC(C)N(c2ccccc2)N1C(C)=O (configuration not stated) | > 10 µM | > 10 µM | – | > 10 | – | > 10 | > 10 µM | > 10 | > 10 µM | > 10 | – | – | – | – | – | – | – |
| NC(CSSCC(N)Cc1ccccc1)Cc1ccccc1 (configuration not stated) | > 100 µM | > 100 µM | – | > 100 | > 100 | > 100 | > 100 µM | > 100 | > 100 µM | 74.4 | – | – | – | – | – | – | – |
| Oc1ccc(Cl)cc1C1=NC(/N=C\c2ccccc2)=NC(c2ccccc2)C1 (configuration not stated) | > 100 µM | > 100 µM | > 100 | > 100 | – | – | – | > 100 | > 100 µM | – | – | – | – | – | – | – | – |
| O=c1oc2ccccc2c(O)c1C(C/C(CCN1CCCC1)=N\Nc1ccccc1)c1ccccc1 (configuration not stated) | > 100 µM | > 100 µM | – | – | > 100 | > 100 | 77.7 µM | – | > 100 µM | 60 | – | – | – | – | – | – | – |
| COC(=O)C(NC(=O)c1ccccc1)C(c1ccc(Cl)cc1)P(=O)(OC)OC (configuration not stated) | > 100 µM | > 100 µM | – | > 100 | > 100 | > 100 | > 100 µM | > 100 | > 100 µM | > 100 | – | – | – | – | – | – | – |
| Cc1nc2ccccc2c(/C=C/c2ccc(Cl)cc2)c1C(=O)/C=C/c1ccccc1 | 3.36 µM | – | – | 4.88 | 3.14 | – | 6.5 µM | 4.62 | 6.54 µM | 4.58 | 1670 | 884 | 2010 | 1390 | 1260 | 1980 | 2240 |
| C/C=C(/C)C(=O)O[C@H]1[C@H](O)CC(c2ccc3c(c2O)C(O)=C2C(=O)C4(OC)C(O)=C(C(N)=O)C(=O)[C@H](CC(=O)c5ccccc5O)C4CC2[C@@]3(C)OC)O[C@@H]1C (some centres not stated) | 1.39 µM and 0.198 µM | 1.67 µM and 0.713 µM | – | 10.5 | – | 17 | 0.557 µM and 1.76 µM | 0.0288 | 4.6 µM and 1.52 µM | – | – | – | – | – | – | – | – |
| COc1ccc2c(c1)OC[C@@H]1c3cc(O)c(OCc4ccccc4)cc3O[C@H]21 | – | > 100 µM | – | > 100 | 35.7 | 60.3 | 49 µM | 74.1 | 97.1 µM | 52 | – | – | – | – | – | – | – |

Reference: PubChem BioAssay (NCI)
